Assay results taken from article PMC4940736 (Scientific Reports, 2016).
Where “and” joins values, the source holds several entries; their conditions need not be identical. Equal values may be shown once.

B1: Marburg virus nucleoprotein core domain (MARV NP, amino acids 19-370) (domain or fragment)
chain: RNKKVILFDTNHQVSICNQIIDAINSGIDLGDLLEGGLLTLCVEHYYNSDKDKFNTSPVAKYLRDAGYEFDVIKNADATRFLDVSPNEPHYSPLILALKTLESTESQRGRIGLFLSFCSLFLPKLVVGDRASIEKALRQVTVHQEQGIVTYPNHWLTTGHMKVIFGILRSSFILKFVLIHQGVNLVTGHDAYDSIISNSVGQTRFSGLLIVKTVLEFILQKTDSGVTLHPLVRTSKVKNEVASFKQALSNLARHGEYAPFARVLNLSGINNLEHGLYPQLSAIALGVATAHGSTLAGVNVGEQYQQLREAAHDAEVKLQRRHEHQEIQAIAEDDEERKILEQFHLQKTEITH
B2: Ebola virus nucleoprotein, residues 36-450 (EBOV NP 36-450) (domain or fragment)
chain: VRQRVIPVYQVNNLEEICQLIIQAFEAGVDFQESADSFLLMLCLHHAYQGDYKLFLESGAVKYLEGHGFRFEVKKRDGVKRLEELLPAVSSGKNIKRTLAAMPEEETTEANAGQFLSFASLFLPKLVVGEKACLEKVQRQIQVHAEQGLIQYPTAWQSVGHMMVIFRLMRTNFLIKFLLIHQGMHMVAGHDANDAVISNSVAQARFSGLLIVKTVLDHILQKTERGVRLHPLARTAKVKNEVNSFKAALSSLAKHGEYAPFARLLNLSGVNNLEHGLFPQLSAIALGVATAHGSTLAGVNVGEQYQQLREAATEAEKQLQQYAESRELDHLGLDDQEKKILMNFHQKKNEISFQQTNAMVTLRKERLAKLTEAITAASLPKTSGHYDDDDDIPFPGPINDDDNPGHQDDDPTDSQ

Key:
[1] = molecular target: T1, EBOV NP (amino acids 36–351) (Zaire ebolavirus, UniProt P18272); type: binding, Ebola virus
[2] = molecular target: T2, MARV NP (amino acids 19–370) (Lake Victoria marburgvirus, UniProt P27588); type: binding, Marburg virus
[3] = molecular target: T1, EBOV NP (amino acids 36–351); type: binding, Ebola virus; remark: listed apart in the source
[4] = molecular target: T2, MARV NP (amino acids 19–370); type: binding, Marburg virus; remark: listed apart in the source
[5] = molecular target: T3, EBOV NP (Zaire ebolavirus, UniProt P18272); type: binding, Ebola virus
[6] = molecular target: T4, MARV NP (Lake Victoria marburgvirus, UniProt P27588); type: binding, Marburg virus
[7] = molecular target: T3, EBOV NP; type: binding, Ebola virus; remark: listed apart in the source
[8] = molecular target: T4, MARV NP; type: binding, Marburg virus; remark: listed apart in the source
[9] = molecular target: EBOV NP (residues 36–351) (Zaire ebolavirus, UniProt P18272); type: biochemical, Ebola virus
[10] = molecular target: MARV NP (residues 19–370) (Lake Victoria marburgvirus, UniProt P27588); type: biochemical, Marburg virus
[11] = molecular target: oligomeric EBOV NP 36–450 / ssRNA (Zaire ebolavirus, UniProt P18272); test: biochemical
[12] = molecular target: T1, EBOV NP (amino acids 36–351); type: binding, Ebola virus; remark: listed apart in the source
[13] = molecular target: T2, MARV NP (amino acids 19–370); type: binding, Marburg virus; remark: listed apart in the source
[14] = molecular target: the molecule itself; test: SEC-MALS
[15] = molecular target: the molecule itself; test: SEC

Molecule	S/N ratio (peak intensity protein incubation sample vs control) [1]	S/N ratio (peak intensity protein incubation sample vs control) [2]	Corr response (SPR) [5] [RU]	Corr response (SPR) [6] [RU]	△Tm [7] [°C]	△Tm [8] [°C]	further results
C=CC(C)(C)c1cc(/C=C/C(=O)c2ccc(O)cc2)c(OC)cc1O [GC13, Licochalcone A]	5.61±1.11	6.54±0.52	43.8	29.2	−3.2 ± 0.3	0.7 ± 0.6	BF% (fraction of compound associated with the NP protein) [3]: 0.3% ± 0.0%; S/N [3]: 6.0 ± 1.3; BF% (fraction of compound associated with the NP protein) [4]: 0.1% ± 0.1%; S/N [4]: 11.0 ± 1.9; Monomer (%) [9]: 100%; Monomer (%) [10]: 29.0%; Oligomer(%) >1000 kDa [10]: 2.6%; Tetramer (%) [10]: 68.3%; increase of tetramer formation [10]: > 2 fold
CC1(C)[C@@H](O)CC[C@]2(C)[C@H]3C(=O)C=C4[C@H]5C[C@@](C)(C(=O)O)CC[C@]5(C)CC[C@@]4(C)[C@]3(C)CC[C@@H]12 [GC10, 18α-Glycyrrhetinic acid]	2.62±0.46	2.79±0.34	8.8	5.2	−0.8 ± 0.4	−0.2 ± 0.3	BF% (fraction of compound associated with the NP protein) [3]: 0.1% ± 0.0%; S/N [3]: 1.2 ± 0.1; BF% (fraction of compound associated with the NP protein) [4]: 0.9% ± 0.5%; S/N [4]: 1.8 ± 0.1; Monomer (%) [9]: 64.0%; Oligomer(%) >1000 kDa [9]: 36.0%; Monomer (%) [10]: 63.3%; Oligomer(%) >1000 kDa [10]: 0.5%; Tetramer (%) [10]: 36.2%
O=C(/C=C/c1ccc(O[C@@H]2O[C@H](CO)[C@@H](O)[C@H](O)[C@H]2O)cc1)c1ccc(O)cc1O [GC14, Isoliquiritin]	0.49±0.02	1.61±0.19	–	–	–	–	–
O=C1C[C@@H](c2ccc(O)cc2)Oc2cc(O[C@@H]3O[C@H](CO)[C@@H](O)[C@H](O)[C@H]3O)ccc21 [GC2, Neoliquiritin]	1.31±0.27	1.87±0.38	2.0	1.1	0.0 ± 0.0	0.2 ± 0.3	Monomer (%) [9]: 100%; Monomer (%) [10]: 66.3%; Oligomer(%) >1000 kDa [10]: 4.0%; Tetramer (%) [10]: 29.7%
COc1ccc(-c2coc3cc(O)ccc3c2=O)cc1O [GC9, Calycosin]	1.21±0.25	1.60±0.36	–	–	–	–	–
O=c1cc(-c2ccc(O)cc2)oc2c([C@@H]3OC[C@H](O)[C@H](O)[C@H]3O)c(O)c([C@@H]3O[C@H](CO)[C@@H](O)[C@H](O)[C@H]3O)c(O)c12 [GC3, Schaftoside]	1.47±0.30	1.67±0.31	2.9	2.8	−0.6 ± 0.1	−0.4 ± 0.3	–
CC1(C)[C@@H](O[C@H]2O[C@H](C(=O)O)[C@@H](O)[C@H](O)[C@H]2O[C@@H]2O[C@H](C(=O)O)[C@@H](O)[C@H](O)[C@H]2O)CC[C@]2(C)[C@H]3C(=O)C=C4[C@@H]5C[C@@](C)(C(=O)O)CC[C@]5(C)CC[C@@]4(C)[C@]3(C)CC[C@@H]12 [GC6, Glycyrrhizin]	1.84±0.12	1.46±0.73	–	–	0.1 ± 0.2	−0.2 ± 0.3	–
O=C(/C=C/c1ccc(O)cc1)c1ccc(O[C@@H]2O[C@H](CO)[C@@H](O)[C@H](O)[C@H]2O)cc1O [GC4, Neoisoliquiritin]	1.46±0.29	1.59±0.41	–	–	0.1 ± 0.2	0.2 ± 0.3	–
CC1(C(=O)O)CCC2(C)CCC3(C)C(=CC(=O)C4C5(C)CCC(O)C(C)(C)C5CCC43C)C2C1 (stereo not drawn) [GC7, 18β-Glycyrrhetinic acid]	2.62±0.46	2.79±0.34	128	35.8	−9.2 ± 0.4	−1.1 ± 0.1	BF% (fraction of compound associated with the NP protein) [3]: 11.0% ± 1.1%; S/N [3]: 2.7 ± 0.3; BF% (fraction of compound associated with the NP protein) [4]: 16.9% ± 4.1%; S/N [4]: 2.3 ± 0.4; decrease of the protein melting temperature [7]: 9 °C; Oligomer(%) <1000 kDa [9]: 68.7%; Monomer (%) [10]: 71.0% and 84.5%; Oligomer(%) >1000 kDa [10]: 6.2% and 6.9%; IC50 [11]: ~160 µM
COc1ccc(-c2coc3cc(O[C@@H]4O[C@H](CO)[C@@H](O)[C@H](O)[C@H]4O)ccc3c2=O)cc1 [GC5, Ononin]	1.34±0.31	1.18±0.43	–	–	−0.2 ± 0.3	0.0 ± 0.5	–
O=C(/C=C/c1ccc(O)cc1)c1ccc(O)cc1O [GC11, Isoliquiritigenin]	1.11±0.16	1.08±0.04	–	–	–	–	–
Liquiritin apioside [GC1]	1.37±0.28	1.85±0.35	3.1	2.0	−0.5 ± 0.2	−0.2 ± 0.3	S/N AVE [12]: 1.07; VIP [12]: 2.03; S/N AVE [13]: 1.53; VIP [13]: 5.68
O=C1C[C@@H](c2ccc(O[C@@H]3O[C@H](CO)[C@@H](O)[C@H](O)[C@H]3O)cc2)Oc2cc(O)ccc21 [GC12, Liquiritin]	1.31±0.27	1.87±0.38	–	–	–	–	–
O=C1C[C@@H](c2ccc(O)cc2)Oc2cc(O)ccc21 [GC8, Liquiritigenin]	0.96±0.22	1.28±0.18	–	–	–	–	–
B1	–	–	–	–	–	–	stoichiometry N [14]: 4
B2	–	–	–	–	–	–	binding result [15]: binds
